Tests used:
[1] = molecular target: T1, human CYP11B1 (Homo sapiens, UniProt P15538); assay: Inhibition of hCYP11B1 in transfected V79 cells; type: cell-based; settings: hamster V79 cells expressing human CYP11B1; substrate 11-deoxycortisol 200 nM
T1 construct: expressed in transfected cells
T1 sequence (P15538 25-503): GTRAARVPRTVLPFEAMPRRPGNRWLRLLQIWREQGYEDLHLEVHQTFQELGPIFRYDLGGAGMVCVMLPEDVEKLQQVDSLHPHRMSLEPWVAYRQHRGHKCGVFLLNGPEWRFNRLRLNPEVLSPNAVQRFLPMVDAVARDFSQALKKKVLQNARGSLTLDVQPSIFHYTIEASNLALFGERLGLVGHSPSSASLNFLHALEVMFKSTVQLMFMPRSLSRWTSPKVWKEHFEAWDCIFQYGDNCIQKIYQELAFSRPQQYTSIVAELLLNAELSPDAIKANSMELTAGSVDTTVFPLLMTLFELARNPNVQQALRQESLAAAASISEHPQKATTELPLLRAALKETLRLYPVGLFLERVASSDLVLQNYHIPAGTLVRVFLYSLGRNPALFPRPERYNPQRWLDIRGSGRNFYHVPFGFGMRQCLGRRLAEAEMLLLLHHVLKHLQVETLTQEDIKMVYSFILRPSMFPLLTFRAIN
In short: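 V79 hamster cells stably expressing human CYP11B1 and rat NADPH-P450 reductase were preincubated with compounds for 2 h. 11-Deoxycortisol (200 nM) was then added as substrate for 30 min before ethyl acetate quench. Substrate and product were quantified by LC-MS/MS or HPLC at 260 nm, and IC50 was derived from percent inhibition.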

[2] = molecular target: T2, human CYP11B2 (Homo sapiens, UniProt P19099); assay: Inhibition of hCYP11B2 in transfected V79 cells; type: cell-based; settings: hamster V79 cells expressing human CYP11B2; substrate 11-deoxycorticosterone 200 nM
T2 construct: expressed in transfected cells
T2 sequence (P19099 25-503): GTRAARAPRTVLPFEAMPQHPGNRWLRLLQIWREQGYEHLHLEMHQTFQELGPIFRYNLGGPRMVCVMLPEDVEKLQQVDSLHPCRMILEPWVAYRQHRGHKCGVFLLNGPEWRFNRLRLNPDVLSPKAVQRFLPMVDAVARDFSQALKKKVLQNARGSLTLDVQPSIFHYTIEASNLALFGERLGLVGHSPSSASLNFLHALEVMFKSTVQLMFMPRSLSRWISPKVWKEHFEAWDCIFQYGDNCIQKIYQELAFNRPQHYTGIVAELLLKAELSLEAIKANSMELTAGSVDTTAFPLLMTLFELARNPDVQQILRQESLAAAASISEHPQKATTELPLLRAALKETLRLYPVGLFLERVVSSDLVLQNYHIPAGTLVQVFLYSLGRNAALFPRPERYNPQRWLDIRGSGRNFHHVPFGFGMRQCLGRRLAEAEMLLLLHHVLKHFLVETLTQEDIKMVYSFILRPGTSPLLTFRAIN
In short: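 Hamster V79 cells stably co-expressing human CYP11B2 and rat NADPH-P450 reductase were pre-incubated with compounds for 2 hours, then given 200 nM 11-deoxycorticosterone for 30 minutes before ethyl acetate quench. Substrate and product were quantified by LC-MS/MS or HPLC at 260 nm, and IC50 was derived from percent inhibition.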

| SMILES | IC50 [1] | IC50 [2] |
| --- | --- | --- |
| N#Cc1ccc(-c2cncc3c2CCN3C(=O)c2cccnc2)cc1 [C29, 4-(1-Nicotinoyl-2,3-dihydro-1H-pyrrolo[2,3-c]pyridin-4-yl)benzonitrile] | 185 nM | 1.7 nM |
| N#Cc1ccc(-c2cncc3c2OCCN3S(=O)(=O)c2cccc3cccnc23)cc1 [O15, 4-(4-(Quinolin-8-ylsulfonyl)-3,4-dihydro-2H-pyrido[4,3-b][1,4]oxazin-8-yl)benzonitrile] | 1.46 nM | 0.25 nM |
| N#Cc1ccc(S(=O)(=O)N2CCOc3c(-c4ccc5c(c4)NC(=O)C5)cncc32)cc1 [O132, 4-((8-(2-Oxoindolin-6-yl)-2,3-dihydro-4H-pyrido[4,3-b][1,4]oxazin-4-yl)sulfonyl)benzonitrile] | 168 nM | 5.4 nM |
| O=C(C1CN(Cc2cccc(F)c2)C1)N1CCOc2c(-c3cc4ccc(F)cc4[nH]3)cncc21 [O93, (8-(6-Fluoro-1H-indol-2-yl)-2,3-dihydro-4H-pyrido[4,3-b][1,4]oxazin-4-yl)(1-(3-fluorobenzyl)azetidin-3-yl)methanone] | 4170 nM | 90 nM |
| COc1ccc(S(=O)(=O)N2CC(S(=O)(=O)N3CCOc4c(-c5ccc(C#N)cc5)cncc43)C2)cc1 [O118, 4-(4-((1-((4-Methoxyphenyl)sulfonyl)azetidin-3-yl)sulfonyl)-3,4-dihydro-2H-pyrido[4,3-b][1,4]oxazin-8-yl)benzonitrile] | 39 nM | 2.7 nM |
| N#Cc1ccc(-c2cncc3c2OCCN3C(=O)C2CN(C(=O)c3cccc(F)c3)C2)cc1 [O58, 4-(4-(1-(3-Fluorobenzoyl)azetidine-3-carbonyl)-3,4-dihydro-2H-pyrido[4,3-b][1,4]oxazin-8-yl)benzonitrile] | 132 nM | 1.9 nM |
| N#Cc1ccc(-c2cncc3c2OCCN3S(=O)(=O)C2CN(c3cccc(F)c3)C2)cc1 [O126, 4-(4-((1-(3-Fluorophenyl)azetidin-3-yl)sulfonyl)-3,4-dihydro-2H-pyrido[4,3-b][1,4]oxazin-8-yl)benzonitrile] | 126 nM | 3 nM |
| N#Cc1ccc(-c2cncc3c2OCCN3C(=O)[C@@H]2CCN(Cc3cccc(F)c3)C2)cc1 [O105, (R)-4-(4-(1-(3-Fluorobenzyl)pyrrolidine-3-carbonyl)-3,4-dihydro-2H-pyrido[4,3-b][1,4]oxazin-8-yl)benzonitrile] | 650 nM | 29 nM |
| N#Cc1ccc(-c2cncc3c2OCCN3C(=O)CCc2ccc(F)cc2)cc1 [O47, 4-(4-(3-(4-Fluorophenyl)propanoyl)-3,4-dihydro-2H-pyrido[4,3-b][1,4]oxazin-8-yl)benzonitrile] | 52 nM | 3.8 nM |
| N#Cc1ccc(S(=O)(=O)N2CCOc3c(-c4cc5cc(Cl)ccc5o4)cncc32)cc1 [O128, 4-((8-(5-Chlorobenzofuran-2-yl)-2,3-dihydro-4H-pyrido[4,3-b][1,4]oxazin-4-yl)sulfonyl)benzonitrile] | 256 nM | 3.3 nM |
| CN1CCNc2cncc(-c3ccc(C#N)cc3)c21 [N3, 4-(1-Methyl-1,2,3,4-tetrahydropyrido[3,4-b]pyrazin-8-yl)benzonitrile] | 394 nM | 311 nM |
| COC(=O)c1ccc(C(=O)N2CCc3c(-c4ccc(C#N)cc4)cncc32)cc1 [C47] | 19 nM | 17 nM |
| COc1cccc(C2=NOC(S(=O)(=O)N3CCOc4c(-c5ccc(C#N)cc5)cncc43)C2)c1 (centres unmarked) [O100, 4-(4-((3-(3-Methoxyphenyl)-4,5-dihydroisoxazol-5-yl)sulfonyl)-3,4-dihydro-2H-pyrido[4,3-b][1,4]oxazin-8-yl)benzonitrile] | 102 nM | 0.3 nM |
| N#Cc1ccc(-c2cncc3c2OCCN3S(=O)(=O)c2ccccc2)cc1 [O1, 4-(4-(Phenylsulfonyl)-3,4-dihydro-2H-pyrido[4,3-b][1,4]oxazin-8-yl)benzonitrile] | 0.22 nM | 0.16 nM |
| O=C(c1ccccc1F)N1CCc2c(-c3ccc4nccn4c3)cncc21 [C57, (2-Fluorophenyl)(4-(imidazo[1,2-a]pyridin-6-yl)-2,3-dihydro-1H-pyrrolo[2,3-c]pyridin-1-yl)methanone] | 876 nM | 27 nM |
| O=C(c1ccccc1F)N1CCc2c(-c3ccc4ncsc4c3)cncc21 [C58, (4-(benzo[d]thiazol-6-yl)-2,3-dihydro-1H-pyrrolo[2,3-c]pyridin-1-yl)(2-fluorophenyl)methanone] | 2640 nM | 75 nM |
| N#Cc1ccc(CN2CC(C(=O)N3CCOc4c(-c5ccc(C#N)cc5)cncc43)C2)cc1 [O81, 4-(4-(1-(4-Cyanobenzyl)azetidine-3-carbonyl)-3,4-dihydro-2H-pyrido[4,3-b][1,4]oxazin-8-yl)benzonitrile] | 72 nM | 0.6 nM |
| N#CN1CC2(C1)CN(c1cncc3c1OCCN3C(=O)C1CN(Cc3cccc(F)c3)C1)C2 [O134, 6-(4-(1-(3-Fluorobenzyl)azetidine-3-carbonyl)-3,4-dihydro-2H-pyrido[4,3-b][1,4]oxazin-8-yl)-2,6-diazaspiro[3.3]heptane-2-carbonitrile] | 3580 nM | 52 nM |

Second part, the molecule after the results:

| IC50 [1] | IC50 [2] | SMILES |
| --- | --- | --- |
| 1.2 nM | 0.1 nM | N#Cc1ccc(-c2cncc3c2SCCN3S(=O)(=O)c2ccc([N+](=O)[O-])cc2)cc1 [S19, 4-(4-((4-Nitrophenyl)sulfonyl)-3,4-dihydro-2H-pyrido[4,3-b][1,4]thiazin-8-yl)benzonitrile] |
| 9.4 nM | 0.4 nM | N#Cc1ccc(-c2cncc3c2SCCN3S(=O)(=O)C2CN(Cc3ccc(F)cc3)C2)cc1 [S82, 4-(4-((1-(4-Fluorobenzyl)azetidin-3-yl)sulfonyl)-3,4-dihydro-2H-pyrido[4,3-b][1,4]thiazin-8-yl)benzonitrile] |
| 621 nM | 6.5 nM | N#Cc1ccc(S(=O)(=O)N2CCSc3c(-c4cc5ccccc5s4)cncc32)cc1 [S43, 4-((8-(Benzo[b]thiophen-2-yl)-2,3-dihydro-4H-pyrido[4,3-b][1,4]thiazin-4-yl)sulfonyl)benzonitrile] |
| 3650 nM | 44 nM | Cc1cccc(C(=O)N2CCSc3c(-c4ccc(C#N)cc4)cncc32)c1 [S91, 4-(4-(3-Methylbenzoyl)-3,4-dihydro-2H-pyrido[4,3-b][1,4]thiazin-8-yl)benzonitrile] |
| 23 nM | 2.1 nM | COc1ccc(C(=O)N2CC(S(=O)(=O)N3CCSc4c(-c5ccc(C#N)cc5)cncc43)C2)cc1 [S72, 4-(4-((1-(4-Methoxybenzoyl)azetidin-3-yl)sulfonyl)-3,4-dihydro-2H-pyrido[4,3-b][1,4]thiazin-8-yl)benzonitrile] |
| 49 nM | 1.4 nM | N#Cc1ccc(C(=O)N2CC(S(=O)(=O)N3CCSc4c(-c5ccc(C#N)cc5)cncc43)C2)cc1 [S70, 4-(4-((1-(4-Cyanobenzoyl)azetidin-3-yl)sulfonyl)-3,4-dihydro-2H-pyrido[4,3-b][1,4]thiazin-8-yl)benzonitrile] |
| 3710 nM | 36 nM | O=S(=O)(N1CCn2cnnc2C1)N1CCSc2c(-c3cc4cc(Cl)ccc4o3)cncc21 [S102, 8-(5-Chlorobenzofuran-2-yl)-4-((5,6-dihydro-[1,2,4]triazolo[4,3-a]pyrazin-7 (8H)-yl)sulfonyl)-3,4-dihydro-2H-pyrido[4,3-b][1,4]thiazine] |
| 1460 nM | 11.6 nM | Cn1ncc2ccc(-c3cncc4c3SCCN4S(=O)(=O)c3ccc(C#N)cc3)cc21 [S45, 4-((8-(1-Methyl-1H-indazol-6-yl)-2,3-dihydro-4H-pyrido[4,3-b][1,4]thiazin-4-yl)sulfonyl) benzonitrile] |
| 643 nM | 11 nM | COc1cccc(C(=O)N2CCSc3c(-c4ccc(C#N)cc4)cncc32)c1 [S96, 4-(4-(3-Methoxybenzoyl)-3,4-dihydro-2H-pyrido[4,3-b][1,4]thiazin-8-yl)benzonitrile] |
| 24 nM | 0.8 nM | N#Cc1ccc(-c2cncc3c2SCCN3S(=O)(=O)C2CN(S(=O)(=O)c3ccc(C#N)cc3)C2)cc1 [S76, 4-((3-((8-(4-Cyanophenyl)-2,3-dihydro-4H-pyrido[4,3-b][1,4]thiazin-4-yl)sulfonyl)azetidin-1-yl)sulfonyl)benzonitrile] |

— patent US20260092074A1, “Annelated Pyridines as Steroidogenesis Inhibitors, Preparation Method and Use Thereof” (Guangzhou Vinnocent Pharmaceutical Limited, priority 2022, published 2026)
